Tests used:
[1] = test system: rat mixed cerebral cell culture; assay: Neutralizing effect on LPS-induced cytotoxicity in a rat mixed cerebral cell culture system (LIC assay), MTT method; type: cell-based; settings: concentration giving a recovery rate of 50%, usually 4-5 days incubation, read-out: ED50 (the source's name)
Description: Neutralizing effect on lipopolysaccharide (LPS)--induced cytotoxicity in a rat mixed cerebral cell culture system (LIC assay)
LPS, a substance known to activate glial cells (astrocytes, microglia), was added to a rat mixed cerebral cell culture system and the compounds which would neutralize the cytotoxicity induced by LPS were screened by the following method.
(1) Neonatal rat mixed cerebral cell culture
From neonatal Crj:CD (SD) rats (1-3 days old, Charles-River Japan, Ltd.), the brains were isolated and placed in ice-cold D-MEM/10% FCS (Dulbecco's cell culture minimal essential medium supplemented with 10% of fetal calf serum, 100 units/ml of penicillin and 100 μg/ml of streptomycin). Then, mixed cerebral cell cultures were carried out in the following steps.
1. The cerebrums were separated from the enucleated brains and the meninges was removed under the stereoscopic microscope.
2. The cerebrums were placed in a nylon-mesh (100-200 μm) bag to filter with the aid of a rubber policeman.
3. Using ice-cold D-MEM/10% FCS, the cells were washed 3 times (1000 rpm, 8 min.). Then, this cell suspension was filtered through a cell strainer (40 μm mesh, Falcon 2340) and the number of viable cells was counted by the trypan blue method.
4. The cells, were seeded in wells of a 96-well microtiter plate (Nunc) at a cell density of 1×10^5 cells/100 μl/well, and started a cell culture at 37° C.
5. One week later, 100 μl/well of D-MEM/10% FCS was added.
6. The plate was further incubated for about 1-2 weeks and the neutralizing activity of the test compound was evaluated by the following method.
(2) Evaluation of neutralizing activity in LPS-induced cytotoxicity
1. Following the rat mixed cerebral cell culture described in (1) (after 2-3 weeks of incubation), the medium was discarded from the respective wells of the 96-well microtiter plate, and 50 μl/well of fresh D-MEM/2% FCS was added.
2. A test sample and LPS (Difco, E. coli 011: B4, Bacto) of a suitable concentration, 25 μl each per well, were respectively added. D-MEM/2% FCS was used as the medium.
As the test sample, each of the compounds shown in Table 32 was dissolved in DMSO at a concentration of 10 ^-2 M and the solution was diluted with D-MEM/2% FCS and submitted for assay.
3. After a suitable period (usually 4-5 days) of incubation, the degree of cytotoxic effect was assessed by the microscopic observation, and MTT method.
(3) MTT [3-(4,5-dimethylthiazol-2-yl)-2,5-diphenyltetra zolium bromide] method
Ten μl of MTT solution (5 mg/ml, Sigma) dissolved in phosphate-buffered saline was added to each well. After 4-6 hours of incubation (37° C., under 10% CO2), 100 μl/well of 0.01N-hydrochloric acid containing 10% SDS was added, whereby the formed formazan was dissolved. After complete dissolution, the absorbance (540-590 nm) was measured for each well.
The ED50 values were determined by calculating the recovery rates by means of the following equation and plotting the concentrations of compounds giving a recovery rate of 50% on graph paper.
Recovery rate (%)=(C-B)×100/(A-B)
[A: the absorbance at 550 nm of the control well to which only the medium had been added
B: the absorbance at 550 nm of the well to which LPS had been added
C: the absorbance at 550 nm of the well to which both LPS and the test compound had been added]

[2] = test system: apomorphine-induced circling in rats pretreated with LPS infused into the unilateral striatum; assay: Inhibitory effect on the apomorphine-induced circling in rats pretreated with LPS infused into the unilateral striatum; type: in vivo, rat; settings: for Number of ipsilateral circlings (mean ± S.E.): 3 times, LPS 5 μg, apomorphine 1 mg/kg s.c., 30-minute period, n=4
Description: Inhibitory effect on the apomorphine-induced circling in rats pretreated with LPS infused into the unilateral striatum Male Wistar rats (8-9 weeks old) weighing 250-280 g at the operation for LPS infusion were submitted to the experiment. Throughout the experimental period, the animals were group-fed in a vivarium controlled at 24±1° C. and 55±1% R.H., with a light-dark cycle of 12 hr (7:00-19:00 ON) and free access to food (Clea Japan, Inc., CE-2 pellets) and water (tap water). Under pentobarbital (50 mg/kg, i.p.) anesthesia, the rat's head was immobilized in David Kopf's brain stereotaxic apparatus for small animal use and with reference to Pellegrino & Cushman's brain atlas, a 30 G stainless steel needle was indwelled in the unilateral striate body (A8.2, L2.8, H4.3). The infusion amount of LPS was set at 5 μg. LPS was dissolved in 1 μl of phosphate-buffered saline (PBS, pH 7.2) and the solution was infused gradually at a speed of 0.2 μl/min. The infusion needle was kept in position till 3 minutes following infusion and withdrawn only after sufficient diffusion of the drug solution had taken place. After 7-8 days postoperatively, 1 mg/kg of apomorphine was administered subcutaneously and the number of induced circling behavior during a 30-minute period immediately following administration were determined with an automatic counter. Compound A was suspended in 5% aqueous gum arabic solution and the suspension was administered either orally or intraperitoneally at a dose rate of 0.2 ml per 100 g rat body weight. This administration was carried out 3 times, namely 30 minutes before infusion of 5 μg LPS and 3 and 24 hours after the infusion. As a control, physiological saline solution alone was administered intraperitoneally.

[3] = test system: NO (nitric oxide) production; assay: Inhibitory effect on LSP-induced NO (nitric oxide) production in a rat mixed cerebral cell culture system; type: cell-based; settings: 120 h, LSP 5 μg/ml, 5 days, combined NO3^- and NO2^- in culture supernatant, read-out: inhibition concentration (IC50) against LSP-induced NO production
Description: Inhibitory effect on LSP-induced NO (nitric oxide) production in a rat mixed cerebral cell culture system
(1) Rat mixed cerebral cell culture
Rat mixed cerebral cell cultures were prepared by the procedure described in Experimental Example 1.
1. Twenty (20) days after initiation of rat mixed cerebral cell culture, the medium was removed from each well of the 96-well microtiter plate and, instead, 125 μl/well of D-MEM/2% FCS containing 5 μg/ml (final concentration) of LSP (Difco, E. coli 011: B4, Bacto) and a suitable dilution of the test compound was added. As the test sample, a stock DMSO solution of 10^-2 M concentration was prepared and diluted with D-MEM/2% FCS.
2. After a further 5 days of cell culture, the combined amount of NO3^- and NO2^- in the culture supernatant was determined with the NO3^- NO2^- Assay Kit (Cayman Chemical, Catalog No. 780001, U.S.A.). The assays were carried out in accordance with the accompanying protocol.
The IC50 values were determined from a plot of the concentrations of the test compound which caused a 50% decrease in the combined amount of […] and NO3^- in the culture supernatant as compared with the well to which LSP alone had been added in a final concentration of 5 μg/ml without addition of compound A.

TNFα = assay: LPS-induced TNFα production in the rat mixed cerebral cell culture system (ELISA); type: cell-based; settings: LPS 10 μg/ml, 24 hours
Description: Rat mixed cerebral cell cultures on day 15 after starting cell cultures were used. After removal of the medium, LPS (E. coli 011: B4, Bacto) (Difco Laboratories), 10 μg/ml, and Compound A, 10^-6 or 10^-7 M, were simultaneously added and the final volume was adjusted to 100 μl. After 24 hours of incubation at 37° C., the culture supernatant was collected as a sample for ELISA. The assay for determining TNFα amount was made using Mouse TNFα ELISA Kit (Genzyme) in accordance with its assay protocol.

COc1ccc(C(CCCCC(=O)NO)C2=C(C)C(=O)c3ccccc3C2=O)cc1 (stereo not shown) [Compound A, 6-(3-Methyl-1,4-naphthoquinon-2-yl)-6-(4-methoxyphenyl)hexanohydroxamic acid]
EC50 [1]: 20 nM | Number of ipsilateral circlings (mean ± S.E.) ([2]; i.p. (3 mg/kg)): 44 ± 15 | Number of ipsilateral circlings (mean ± S.E.) ([2]; p.o. (30 mg/kg)): 65 ± 21 | LPS-induced injury of the unilateral striatum (in words) ([2]; rat, in vivo): significantly attenuated | IC50 [3]: 80 nM | TNFα (TNFα; Compound A 10^-6 M): 230 pg/mL | TNFα (TNFα; Compound A 10^-7 M): 790 pg/mL

Source: patent US5804601A, “Aromatic hydroxamic acid compounds, their production and use” (Takeda Chemical Industries, Ltd., priority 1995, dated 1998)
